Assays:
rat = assay: Positive emotional learning (PEL) test, 50-kHz USVs; type: in vivo; conditions: administered one hour prior to PEL testing
Protocol: Experiments were conducted as described in Burgdorf et al., “The effect of selective breeding for differential rates of 50-kHz ultrasonic vocalizations on emotional behavior in rats,” Devel. Psychobiol., 51:34-46 (2009).
The PEL assay measures the acquisition of positive (hedonic) 50-kHz ultrasonic vocalizations (USVs) to a social stimulus, heterospecific rough and tumble play stimulation. Heterospecific rough-and-tumble play stimulation was administered by the experimenter's right hand. Animals received 3 min of heterospecific rough-and-tumble play that consisted of alternating 15 sec blocks of heterospecific play and 15 sec of no-stimulation. High frequency ultrasonic vocalizations (USVs) were recorded and analyzed by sonogram with Avasoft SASlab Pro (Germany) as previously described by Burgdorf et al., “Positive emotional learning is regulated in the medial prefrontal cortex by GluN2B-containing NMDA receptors,” Neuroscience, 192:515-523 (2011). Frequency modulated 50-kHz USVs that occurred during each of the no-stimulation periods were quantified to measure PEL. Animals were not habituated to play stimulation before testing. Positive emotional learning was measured during the conditioned stimulus (CS) trials preceding the tickle unconditioned stimulus (UCS) trials. […] Running speed for animals to self administer tickling at the end of the 3 min session was also measured.

NR2B = NR2B (Homo sapiens, UniProt Q13224); assay: Potentiation of [3H]MK-801 binding, wild-type NMDAR2B; set-up: species or system rat
Protocol: Assays were conducted as described by Moskal et al., “GLYX-13: a monoclonal antibody-derived peptide that acts as an N-methyl-D-aspartate receptor modulator,” Neuropharmacology, 49, 1077-87, 2005. The potentiation of [^3H]MK-801 binding (5 nM; 22.5 Ci/mmol) to well washed rat cortical membranes (200 μg) was measured under non-equilibrium conditions (15 min @ 25° C.) in the presence of increasing concentrations of Compound AA or Compound BB.
FIG. 2A depicts the potentiation of [^3H]MK-801 binding for wild-type NMDAR2 subtypes in the presence of Compound AA. FIG. 2B depicts the potentiation of [^3H]MK-801 binding for wild-type NMDAR2 subtypes in the presence of Compound BB. The following table depicts the results (P means potency and A means activity): […]

[1] = tested on: rat Schaffer collateral-evoked NMDA fEPSPs recorded in CA1 pyramidal neurons; assay: Long-term potentiation in hippocampal slices; type: cell-based; conditions: bath application 100 nm, 500 nm, 2 μM
Protocol: Assays were conducted as described in Zhang et al. (Zhang, X. L., Sullivan, J. A., Moskal., J. R., Stanton, P. K., 2008. A NMDA receptor glycine site partial agonist, GLYX-13, simultaneously enhances LTP and reduces LTD at Schaffer collateral-CA1 synapses in hippocampus. Neuropharmacology, 55, 1238-50). See also Burgdorf, J, Zhang X L, Nicholson K L, Balster R L, Leander J D, Stanton P K, Gross A L, Kroes R A, Moskal J R (2013), GLYX-13, a NMDA receptor glycine-site functional partial agonist, induces antidepressant-like effects without ketamine-like side effects, Neuropsychopharmacology: official publication of the American College of Neuropsychopharmacology 38:729-742. […] A bipolar tungsten ystimulating electrode (FHC Co.) was placed on Schaffer collateral-commissural fibers in CA3 stratum radiatum, and constant current stimulus intensity adjusted to evoke approximately half-maximal fEPSPs once each 30 s ([…]; 100 μs duration). fEPSP slope was measured before and after induction of LTP by linear interpolation from 20 to 80% of maximum negative deflection, and slopes confirmed to be stable to within ±10% for at least 15 min before commencing an experiment. […] The signals were recorded using a Multiclamp 700B amplifier and digitized with a Digidata 1322 (Axon Instruments, USA).

Chain of NR2B (Q13224 27-1484, species assumed, other chains not shown): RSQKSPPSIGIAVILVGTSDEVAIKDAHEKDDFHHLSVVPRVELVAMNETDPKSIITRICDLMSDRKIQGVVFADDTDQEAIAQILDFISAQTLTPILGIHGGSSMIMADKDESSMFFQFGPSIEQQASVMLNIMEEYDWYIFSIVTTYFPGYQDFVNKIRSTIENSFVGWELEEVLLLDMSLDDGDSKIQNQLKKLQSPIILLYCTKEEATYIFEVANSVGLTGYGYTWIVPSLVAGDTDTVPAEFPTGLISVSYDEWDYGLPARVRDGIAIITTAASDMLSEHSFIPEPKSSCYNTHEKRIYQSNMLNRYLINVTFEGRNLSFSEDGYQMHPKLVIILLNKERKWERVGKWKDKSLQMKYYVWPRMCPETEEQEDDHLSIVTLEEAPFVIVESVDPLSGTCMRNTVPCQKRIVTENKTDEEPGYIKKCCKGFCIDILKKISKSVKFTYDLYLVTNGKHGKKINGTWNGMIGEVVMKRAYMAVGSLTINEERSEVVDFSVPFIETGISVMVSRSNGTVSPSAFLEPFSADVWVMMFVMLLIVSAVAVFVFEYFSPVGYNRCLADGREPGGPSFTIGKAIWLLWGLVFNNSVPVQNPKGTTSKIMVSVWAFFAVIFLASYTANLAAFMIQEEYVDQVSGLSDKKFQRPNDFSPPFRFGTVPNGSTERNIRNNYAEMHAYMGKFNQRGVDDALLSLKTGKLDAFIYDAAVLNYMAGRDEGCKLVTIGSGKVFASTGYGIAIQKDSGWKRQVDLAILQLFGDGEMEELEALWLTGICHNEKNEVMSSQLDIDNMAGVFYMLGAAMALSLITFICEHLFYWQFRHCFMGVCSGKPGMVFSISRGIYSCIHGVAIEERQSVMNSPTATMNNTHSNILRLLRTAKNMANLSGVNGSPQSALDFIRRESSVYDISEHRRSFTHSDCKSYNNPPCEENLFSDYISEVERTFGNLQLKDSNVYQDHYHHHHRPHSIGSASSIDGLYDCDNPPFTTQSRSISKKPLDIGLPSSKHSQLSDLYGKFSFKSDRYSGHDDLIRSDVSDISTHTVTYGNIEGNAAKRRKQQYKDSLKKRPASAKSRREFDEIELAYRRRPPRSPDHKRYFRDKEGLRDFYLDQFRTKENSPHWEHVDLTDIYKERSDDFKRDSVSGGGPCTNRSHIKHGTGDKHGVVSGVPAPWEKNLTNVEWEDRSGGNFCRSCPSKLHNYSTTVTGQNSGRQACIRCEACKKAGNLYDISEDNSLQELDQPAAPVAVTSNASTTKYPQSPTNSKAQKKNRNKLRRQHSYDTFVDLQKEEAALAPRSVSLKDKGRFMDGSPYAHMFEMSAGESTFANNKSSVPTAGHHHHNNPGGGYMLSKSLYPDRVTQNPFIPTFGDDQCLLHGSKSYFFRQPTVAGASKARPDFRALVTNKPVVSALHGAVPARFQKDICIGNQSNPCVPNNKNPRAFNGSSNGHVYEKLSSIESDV

NR2B A (%) (activity) (NR2B; potentiation of [3H]MK-801 binding): 76.3%
NMDAR2B BINDING PROFILE % 1 mM Glycine (NR2B; relative to 1 mM glycine): 76.3%
binding to NR2B (in words) (NR2B; statement in description): binds
NMDAR2B BINDING PROFILE Conclusion (NR2B; wild-type NMDAR2B): WT2B agonist
Compound: C[C@@H](O)[C@@H](C(N)=O)N1C[C@@]2(CCCN2S(C)(=O)=O)C1=O [Compound BB, (2S,3R)-3-hydroxy-2-((S)-5-(methylsulfonyl)-1-oxo-2,5-diazaspiro[3,4]octan-2-yl)butanamide]
positive emotional learning as measured by rat USVs (rat): increases positive emotional learning
long-term potentiation after high frequency stimulation [1]: increased long-term potentiation
